Literature values as cited in patent US20210113664A1, “IMPLANTS FOR RELEASE OF LIPOPHILIC OR AMPHIPHILIC PHARMACEUTICAL SUBSTANCES” (Titan Pharmaceuticals, Inc., priority 2018, published 2021).

Conditions: values as reported by PubChem

Row | log Poct | Compound
1 | about 4.8 | CC#CCC(C)[C@H](O)/C=C/[C@@H]1[C@H]2C/C(=C/CCCC(=O)O)C[C@H]2C[C@H]1O (some centres unmarked) [iloprost]
2 | about 4 | N[C@@H](Cc1cc(I)c(Oc2cc(I)c(O)c(I)c2)c(I)c1)C(=O)O [levothyroxine]
